From patent US20120220581A1, “IMIDAZO[1,2-b]PYRIDAZINE DERIVATIVES AND THEIR USE AS PDE10 INHIBITORS” (Janssen-Cilag, S.A., priority 2009, published 2012)
Counter-ions that a name gives are not always drawn. Like-named read-outs stand apart in the source and are kept apart here.

Legend:
[1] = target: T1, Rat recombinant PDE10A (rPDE10A2) (Rattus norvegicus, UniProt Q9QYJ6); assay: In vitro assay PDE10A (SPA, 3H-cAMP); format: biochemical
T1 construct: inferred from the Ni metal chelate purification; made in house; host or cells: Sf9 insect cells (baculovirus)
T1 sequence (Q9QYJ6 1-794): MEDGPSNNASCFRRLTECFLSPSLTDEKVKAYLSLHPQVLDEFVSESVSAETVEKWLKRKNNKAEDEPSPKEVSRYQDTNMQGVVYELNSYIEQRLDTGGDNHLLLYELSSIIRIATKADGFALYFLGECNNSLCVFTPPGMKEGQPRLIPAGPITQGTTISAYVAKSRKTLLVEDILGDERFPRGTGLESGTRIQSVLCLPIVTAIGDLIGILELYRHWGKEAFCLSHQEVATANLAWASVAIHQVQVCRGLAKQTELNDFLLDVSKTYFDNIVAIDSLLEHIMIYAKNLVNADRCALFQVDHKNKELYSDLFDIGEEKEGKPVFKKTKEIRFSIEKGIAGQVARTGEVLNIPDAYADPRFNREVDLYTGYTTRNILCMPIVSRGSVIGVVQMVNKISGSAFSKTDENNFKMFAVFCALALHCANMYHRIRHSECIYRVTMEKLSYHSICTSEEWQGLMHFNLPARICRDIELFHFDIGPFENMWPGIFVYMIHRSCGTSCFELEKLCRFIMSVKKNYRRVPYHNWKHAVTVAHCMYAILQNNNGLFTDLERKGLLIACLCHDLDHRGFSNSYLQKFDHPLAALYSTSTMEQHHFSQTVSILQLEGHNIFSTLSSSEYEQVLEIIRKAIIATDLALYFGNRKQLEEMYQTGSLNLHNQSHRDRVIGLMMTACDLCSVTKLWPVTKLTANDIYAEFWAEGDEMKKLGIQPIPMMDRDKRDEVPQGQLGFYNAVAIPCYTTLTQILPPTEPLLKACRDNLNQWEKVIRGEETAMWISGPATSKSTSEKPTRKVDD
Outline: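 Scintillation proximity read-out (cpm) of 3H-cAMP hydrolysis after 60 min at room temperature, with enzyme-free blanks and 1% DMSO controls. Enzyme was Sf9-expressed, Ni-sepharose-purified rat rPDE10A2; substrate 60 nM cAMP with tracer, buffer Tris pH 7.8 containing MgCl2 and EGTA.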

[2] = test system: apomorphine-induced stereotypy in rats; assay: Apomorphine-induced stereotypy in rats (APO); format: in vivo; conditions: Rattus norvegicus
Method: Apomorphine (1.0 mg/kg, i.v.)-induced stereotypy (compulsive sniffing, licking, chewing) was scored every 5 min over the first hour after injection of apomorphine, following a 1 hour interval pre-treatment with the test compound. The score system was: (3) pronounced, (2) moderate, (1) slight, and (0) absent.

PDE10 = target: T2, PDE10 (Rattus norvegicus, UniProt Q9QYJ6); assay: PDE10 occupancy ([3H]-MP-10, striatum); format: in vivo; conditions: for receptor occupancy at 10 mg/kg / ED50: rat; for receptor occupancy at 10 mg/kg: single dose 10 mg/kg
T2 construct: from tissue; host or cells: rat brain sections, striatum (in vivo dosing, ex vivo autoradiography)
T2 sequence (Q9QYJ6 1-794): T1 sequence (Q9QYJ6 1-794)
Method: Dose-response or single dose experiments were performed to measure PDE10 occupancy 1 hour after subcutaneous (s.c.) or oral (p.o.) administration. Male Wistar rats (200 g) were treated by s.c. or p.o. administration of various PDE10 inhibitors. The PDE10 radioligand [^3H]-MP-10 (10 μCi/animal) was injected intravenously (i.v.) 30 minutes before sacrifice. Brains were immediately removed from the skull and rapidly frozen. Twenty μm-thick brain sections were cut using a cryostat-microtome, thaw-mounted on microscope slides and loaded in a β-imager to quantify PDE10 occupancy in the striatum.

[3] = target: other members of the PDE family (Homo sapiens, UniProt O00408); assay: In vitro PDE selectivity assay (SPA), other members of the PDE family (protocols in Table A); format: biochemical; conditions: hPDE2A; read-out: PDE 2A (expressed as pIC50) (converted)
Method: Rat recombinant PDE10A (rPDE10A2) was expressed in Sf9 cells using a recombinant rPDE10A baculovirus construct. Cells were harvested after 48 h of infection and the rPDE10A protein was purified by metal chelate chromatography on Ni-sepharose 6FF. Tested compounds were dissolved and diluted in 100% DMSO to a concentration 100 fold of the final concentration in the assay. Compound dilutions (0.4 μl) were added in 384 well plates to 20 μl of incubation buffer (50 mM Tris pH 7.8, 8.3 mM MgCl2, 1.7 mM EGTA). 10 μl of rPDE10A enzyme in incubation buffer was added and the reaction was started by addition of 10 μl substrate to a final concentration of 60 nM cAMP and 0.008 μCi ^3H-cAMP. The reaction was incubated for 60 minutes at room temperature. After incubation, the reaction was stopped with 20 μl of stop solution consisting of 17.8 mg/ml PDE SPA (scintillation proximity assay) beads. After sedimentation of the beads during 30 minutes the radioactivity was measured in a Perkin Elmer Topcount scintillation counter and results were expressed as cpm. For blanc values the enzyme was omitted from the reaction and replaced by incubation buffer. Control values were obtained by addition of a final concentration of 1% DMSO instead of compound. The same assay principle is applied for the measurement of the affinity of the compound for other members of the PDE family with appropriate modifications in incubation buffer, substrate concentration, incubation time and stop solution. An overview of the different protocols is presented in table A. A best fit curve is fitted by a minimum sum of squares method to the plot of % of control value substracted with blanc value versus compound concentration and the half maximal inhibitory concentration (IC50) value is derived from this curve.
The compounds of the invention are generally selective for PDE10 compared to other PDEs and there are a few that also have affinity for PDE1B1, 4D3 and 5A3.

[4] = pIC50 corresponds to the −log IC50 expressed in mol/L, read-out: PDE10A2 pIC50 (converted)
[5] = n.d.: found not active at threshold dose 2.5 mg/kg or 10 mg/kg (a), not further tested
[6] = sc, subcutaneous, read-out: SD sc % occupancy at 10 mg/kg
[7] = oral, read-out: SD po % occupancy at 10 mg/kg
[8] = po, n.d.: found not active at threshold dose 2.5 mg/kg or 10 mg/kg (a), * not soluble, tested orally as a suspension
[9] = Table 4 in vitro selectivity, read-out: PDE 10A2 (expressed as pIC50) (converted)
[10] = dose at which 50% of the tested animals show the effect, ≧: active in 30% of the animals at the indicated dose, ≦: active in 60%

Chain of other members of the PDE family (O00408 whole entry): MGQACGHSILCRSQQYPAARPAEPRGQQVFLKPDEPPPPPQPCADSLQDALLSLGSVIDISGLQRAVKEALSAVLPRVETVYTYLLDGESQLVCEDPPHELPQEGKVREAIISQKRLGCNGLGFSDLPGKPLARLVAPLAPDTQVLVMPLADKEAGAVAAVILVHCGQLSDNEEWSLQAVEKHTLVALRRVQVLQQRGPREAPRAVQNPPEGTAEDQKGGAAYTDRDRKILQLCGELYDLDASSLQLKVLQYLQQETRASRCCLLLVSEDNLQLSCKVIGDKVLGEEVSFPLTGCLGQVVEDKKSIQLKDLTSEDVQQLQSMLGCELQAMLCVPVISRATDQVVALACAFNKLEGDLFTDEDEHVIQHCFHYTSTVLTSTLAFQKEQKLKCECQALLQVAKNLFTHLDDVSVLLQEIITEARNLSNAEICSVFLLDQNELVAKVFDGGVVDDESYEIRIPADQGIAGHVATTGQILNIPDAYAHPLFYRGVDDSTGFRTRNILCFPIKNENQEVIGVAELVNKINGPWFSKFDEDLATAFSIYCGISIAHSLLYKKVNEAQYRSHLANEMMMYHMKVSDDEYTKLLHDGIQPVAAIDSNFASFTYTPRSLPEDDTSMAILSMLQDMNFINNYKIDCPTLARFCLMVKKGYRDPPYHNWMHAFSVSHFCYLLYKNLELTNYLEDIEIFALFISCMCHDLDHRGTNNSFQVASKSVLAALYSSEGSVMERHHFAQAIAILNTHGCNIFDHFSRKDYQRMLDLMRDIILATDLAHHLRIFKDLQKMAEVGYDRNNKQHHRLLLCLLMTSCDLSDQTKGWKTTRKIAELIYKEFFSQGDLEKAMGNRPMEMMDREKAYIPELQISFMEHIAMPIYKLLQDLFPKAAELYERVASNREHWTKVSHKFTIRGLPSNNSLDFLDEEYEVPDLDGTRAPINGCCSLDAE

IC50 [1, 4] | receptor occupancy at 10 mg/kg (PDE10; [6]) | receptor occupancy at 10 mg/kg (PDE10; [7]) | SMILES | ED50 [2, 5] | also measured
25.7 nM |  | 12% | Cc1nc2c(N3CCOCC3)ccnn2c1-c1cnn(CC(F)(F)F)c1 [compound 137, 2-methyl-8-(4-morpholinyl)-3-[1-(2,2,2-trifluoroethyl)-1H-pyrazol-4-yl]-imidazo[1,2-b]pyridazine] | > 2.5 mg/kg | 
39.8 nM |  | 11% | FC(F)(F)Cn1cc(-c2c(C3CC3)nc3c(N4CCOCC4)ccnn23)cn1 [compound 138, 2-cyclopropyl-8-(4-morpholinyl)-3-[1-(2,2,2-trifluoroethyl)-1H-pyrazol-4-yl]-imidazo[1,2-b]pyridazine] |  | ED50 [2, 8]: > 10 mg/kg
219 nM |  | 6% | COCCn1cc(-c2c(C)nc3c(N4CCOCC4)cc(C(F)(F)F)nn23)cn1 [compound 130, 3-[1-(2-methoxyethyl)-1H-pyrazol-4-yl]-2-methyl-8-(4-morpholinyl)-6-(trifluoromethyl)-imidazo[1,2-b]pyridazine] |  | ED50 [2, 8]: > 10 mg/kg
70.8 nM | 44% |  | CCc1nc2c(-c3ccncc3)ccnn2c1-c1cnn(CCOC)c1 [compound 132, 2-ethyl-3-[1-(2-methoxyethyl)-1H-pyrazol-4-yl]-8-(4-pyridinyl)-imidazo[1,2-b]pyridazine] | > 10 mg/kg | 
174 nM |  | 0% | COCCn1cc(-c2c(OC)nc3c(N4CCOCC4)ccnn23)cn1 [compound 140, 2-methoxy-3-[1-(2-methoxyethyl)-1H-pyrazol-4-yl]-8-(4-morpholinyl)-imidazo[1,2-b]pyridazine] | > 10 mg/kg | 

More lines, now with the values behind:

SMILES | IC50 [1, 4] | receptor occupancy at 10 mg/kg (PDE10; [6]) | receptor occupancy at 10 mg/kg (PDE10; [7]) | ED50 [2, 5] | also measured
Cc1nc2c(N3CCOCC3)ccnn2c1-c1ccc(OCC2CC2)nc1 [compound 65, 3-[6-(cyclopropylmethoxy)-3-pyridinyl]-2-methyl-8-(4-morpholinyl)-imidazo[1,2-b]pyridazine] | 162 nM | 17% |  | > 10 mg/kg | 
COCCn1cc(-c2c(C)nc3c(-c4ccncc4)ccnn23)cn1 [compound 114, 3-[1-(2-methoxyethyl)-1H-pyrazol-4-yl]-2-methyl-8-(4-pyridinyl)-imidazo[1,2-b]pyridazine] | 52.5 nM | 72% |  | > 2.5 mg/kg | 
COC(C)(C)Cc1ccc(-c2c(C)nc3c(-c4ccncc4)ccnn23)cn1 [compound 7, 3-[6-(2-methoxy-2-methylpropyl)-3-pyridinyl-2-methyl-8-(4-pyridinyl)-imidazol-1,2-b]pyridazine] | 25.7 nM |  |  |  | IC50 [1, 9]: 25.7 nM; IC50 [3]: > 10000 nM; ED50 [2, 10]: 0.3 mg/kg; ED50 (PDE10; sc, dose response, subcutaneous administration, read-out: PDE10 in vivo occupancy ED50 sc): 1.6 mg/kg
COCCn1cc(-c2c(C(C)C)nc3c(-c4ccncc4)ccnn23)cn1 [compound 121, 3-[1-(2-methoxyethyl)-1H-pyrazol-4-yl]-2-(1-methylethyl)-8-(4-pyridinyl)-imidazo[1,2-b]pyridazine] | 234 nM | 0% |  | > 10 mg/kg | 
Cc1nc2c(N3CCOCC3)ccnn2c1-c1ccc(OCC(F)(F)F)nc1 [compound 62, 2-methyl-8-(4-morpholinyl)-3-[6-(2,2,2-trifluoroethoxy)-3-pyridinyl]-imidazo[1,2-b]pyridazine] | 257 nM |  | 38% |  | ED50 [2, 8]: > 2.5 mg/kg
Cc1nc2c(N3CCOCC3)ccnn2c1-c1ccnc(OC(C)C)c1 [compound 67, 2-methyl-3-[2-(1-methylethoxy)-4-pyridinyl]-8-(4-morpholinyl)-imidazo[1,2-b]pyridazine] | 87.1 nM | 1% |  | > 10 mg/kg | 
COCCOc1ccc(-c2c(C)nc3c(-c4ccncc4)ccnn23)cn1 [compound 21a, 3-[6-(2-methoxyethoxy)-3-pyridinyl]-2-methyl-8-(4-pyridinyl)-imidazo[1,2-b]pyridazine hydrochloride salt] | 151 nM |  |  |  | PDE10 in vivo occupancy ED50 po (PDE10; dose response, oral administration): 14 mg/kg; PDE10 in vivo occupancy ED50 sc (PDE10; dose response, subcutaneous administration): 2.6 mg/kg
COC(C)(C)Cc1ccc(-c2c(C)nc3c(-c4ccncc4)cc(C)nn23)cn1 [compound 48, 3-[6-(2-methoxy-2-methylpropyl)-3-pyridinyl]-2,6-dimethyl-8-(4-pyridinyl)-imidazo[1,2-b]pyridazine] | 115 nM |  |  |  | IC50 [1, 9]: 115 nM; IC50 [3]: > 10000 nM; ED50 [2, 10]: ≥ 2.5 mg/kg; ED50 (PDE10; dose response, oral administration, read-out: PDE10 in vivo occupancy ED50 po): 4.3 mg/kg
Cc1nc2c(N3CCOCC3)ccnn2c1-c1cnn(CC(F)(F)C2CC2)c1 [compound 128, 3-[1-(2-cyclopropyl-2,2-difluoroethyl)-1H-pyrazol-4-yl]-2-methyl-8-(4-morpholinyl)-imidazo[1,2-b]pyridazine] | 50.1 nM | 40% |  | > 10 mg/kg | 
Cc1nc2c(N3CCOCC3)ccnn2c1-c1ccc(OC(C)C)nc1 [compound 66, 2-methyl-3-[6-(1-methylethoxy)-3-pyridinyl]-8-(4-morpholinyl)-imidazo[1,2-b]pyridazine] | 178 nM | 29% |  | > 10 mg/kg | 
